Test results from the supplement of paper PMC10307832.

Key:
Assay in all cases: relative viability (nuclei count vs DMSO), 5 days (fraction); higher = more cells survive
201T = test system: 201T
Method in brief: (§1)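 Medians of duplicate plates are given as relative viability. That measure is the nuclei count in treated wells divided by the count in vehicle wells. Counts were taken on 4× images of lung cancer cell lines in 1536-well plates, 5 days after pin-tool dosing the day after seeding with one drug alone or a fixed anchor-drug dose plus five library-drug doses (not always all listed) in √10 steps.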

COR-L 105 = test system: COR-L 105
Method in brief: as §1

COR-L23 = test system: COR-L23
Method in brief: as §1

EMC-BAC-2 = test system: EMC-BAC-2
Method in brief: as §1

HCC-15 = test system: HCC-15
Method in brief: as §1

HCC-366 = test system: HCC-366
Method in brief: as §1

LC-2-ad = test system: LC-2-ad
Method in brief: as §1

NCI-H1395 = test system: NCI-H1395
Method in brief: as §1

NCI-H1437 = test system: NCI-H1437
Method in brief: as §1

NCI-H1755 = test system: NCI-H1755
Method in brief: as §1

NCI-H1793 = test system: NCI-H1793
Method in brief: as §1

NCI-H1915 = test system: NCI-H1915
Method in brief: as §1

NCI-H2009 = test system: NCI-H2009
Method in brief: as §1

NCI-H2023 = test system: NCI-H2023
Method in brief: as §1

NCI-H2342 = test system: NCI-H2342
Method in brief: as §1

NCI-H2347 = test system: NCI-H2347
Method in brief: as §1

NCI-H23 = test system: NCI-H23
Method in brief: as §1

NCI-H358 = test system: NCI-H358
Method in brief: as §1

NCI-H650 = test system: NCI-H650
Method in brief: as §1

PC-14 = test system: PC-14
Method in brief: as §1

SK-MES-1 = test system: SK-MES-1
Method in brief: as §1

With CN1CCN(CCOc2cc(OC3CCOCC3)c3c(Nc4c(Cl)ccc5c4OCO5)ncnc3c2)CC1 [Saracatinib] + O=C(CCCCCCC(=O)Nc1ccccc1)NO [Vorinostat] (partner 1 µM) the relative viability (201T; first compound 0.02 µM) was 0.971, the relative viability (201T; first compound 0.2 µM) was 0.868 and the relative viability (201T; first compound 0.6325 µM) was 0.799. It also gave a relative viability (201T; first compound 2 µM) of 0.658, a relative viability (COR-L 105; first compound 0.02 µM) of 0.879 and a relative viability (COR-L 105; first compound 0.2 µM) of 0.668. The relative viability (COR-L 105; first compound 0.6325 µM) was 0.819, the relative viability (COR-L 105; first compound 2 µM) was 0.625 and the relative viability (COR-L23; first compound 0.02 µM) was 0.361. For the same compound, the relative viability (COR-L23; first compound 0.2 µM) was 0.41, the relative viability (COR-L23; first compound 0.6325 µM) was 0.469 and the relative viability (COR-L23; first compound 2 µM) was 0.406. For the same compound, the relative viability (EMC-BAC-2; first compound 0.02 µM) was 0.417, the relative viability (EMC-BAC-2; first compound 0.2 µM) was 0.43 and the relative viability (EMC-BAC-2; first compound 0.6325 µM) was 0.417. For the same compound, the relative viability (EMC-BAC-2; first compound 2 µM) was 0.291, the relative viability (HCC-15; first compound 0.02 µM) was 0.902 and the relative viability (HCC-15; first compound 0.2 µM) was 0.859. The relative viability (HCC-15; first compound 0.6325 µM) was 0.931, the relative viability (HCC-15; first compound 2 µM) was 0.861 and the relative viability (HCC-366; first compound 0.02 µM) was 0.4. The relative viability (HCC-366; first compound 0.2 µM) was 0.135, the relative viability (HCC-366; first compound 0.6325 µM) was 0.399 and the relative viability (HCC-366; first compound 2 µM) was 0.221. For the same compound, the relative viability (LC-2-ad; first compound 0.02 µM) was 0.757, the relative viability (LC-2-ad; first compound 0.2 µM) was 0.668 and the relative viability (LC-2-ad; first compound 0.6325 µM) was 0.777. For the same compound, the relative viability (LC-2-ad; first compound 2 µM) was 0.68, the relative viability (NCI-H1395; first compound 0.02 µM) was 0.766 and the relative viability (NCI-H1395; first compound 0.2 µM) was 0.632. For the same compound, the relative viability (NCI-H1395; first compound 0.6325 µM) was 0.706, the relative viability (NCI-H1395; first compound 2 µM) was 0.464 and the relative viability (NCI-H1437; first compound 0.02 µM) was 1.05. For the same compound, the relative viability (NCI-H1437; first compound 0.2 µM) was 0.995, the relative viability (NCI-H1437; first compound 0.6325 µM) was 1.14 and the relative viability (NCI-H1437; first compound 2 µM) was 1.17. It also gave a relative viability (NCI-H1755; first compound 0.02 µM) of 0.687, a relative viability (NCI-H1755; first compound 0.2 µM) of 0.539 and a relative viability (NCI-H1755; first compound 0.6325 µM) of 0.861. It also gave a relative viability (NCI-H1755; first compound 2 µM) of 0.707, a relative viability (NCI-H1793; first compound 0.02 µM) of 0.878 and a relative viability (NCI-H1793; first compound 0.2 µM) of 0.482. The relative viability (NCI-H1793; first compound 0.6325 µM) was 0.842, the relative viability (NCI-H1793; first compound 2 µM) was 0.601 and the relative viability (NCI-H1915; first compound 0.02 µM) was 0.472. It also gave a relative viability (NCI-H1915; first compound 0.2 µM) of 0.462, a relative viability (NCI-H1915; first compound 0.6325 µM) of 0.477 and a relative viability (NCI-H1915; first compound 2 µM) of 0.477. The relative viability (NCI-H2009; first compound 0.02 µM) was 0.754, the relative viability (NCI-H2009; first compound 0.2 µM) was 0.653 and the relative viability (NCI-H2009; first compound 0.6325 µM) was 0.677. It also gave a relative viability (NCI-H2009; first compound 2 µM) of 0.744, a relative viability (NCI-H2023; first compound 0.02 µM) of 0.652 and a relative viability (NCI-H2023; first compound 0.2 µM) of 0.591. For the same compound, the relative viability (NCI-H2023; first compound 0.6325 µM) was 0.73, the relative viability (NCI-H2023; first compound 2 µM) was 0.566 and the relative viability (NCI-H2342; first compound 0.02 µM) was 0.774. For the same compound, the relative viability (NCI-H2342; first compound 0.2 µM) was 0.747, the relative viability (NCI-H2342; first compound 0.6325 µM) was 0.782 and the relative viability (NCI-H2342; first compound 2 µM) was 0.833. For the same compound, the relative viability (NCI-H2347; first compound 0.02 µM) was 0.558, the relative viability (NCI-H2347; first compound 0.2 µM) was 0.413 and the relative viability (NCI-H2347; first compound 0.6325 µM) was 0.719. For the same compound, the relative viability (NCI-H2347; first compound 2 µM) was 0.622, the relative viability (NCI-H23; first compound 0.02 µM) was 0.539 and the relative viability (NCI-H23; first compound 0.6325 µM) was 0.658. For the same compound, the relative viability (NCI-H23; first compound 2 µM) was 0.442, the relative viability (NCI-H358; first compound 0.02 µM) was 0.645 and the relative viability (NCI-H358; first compound 0.2 µM) was 0.442. For the same compound, the relative viability (NCI-H358; first compound 0.6325 µM) was 0.526, the relative viability (NCI-H358; first compound 2 µM) was 0.255 and the relative viability (NCI-H650; first compound 0.02 µM) was 0.5. The relative viability (NCI-H650; first compound 0.2 µM) was 0.365, the relative viability (NCI-H650; first compound 0.6325 µM) was 0.384 and the relative viability (NCI-H650; first compound 2 µM) was 0.857. For the same compound, the relative viability (PC-14; first compound 0.02 µM) was 0.759, the relative viability (PC-14; first compound 0.2 µM) was 0.247 and the relative viability (PC-14; first compound 0.6325 µM) was 0.163. The relative viability (PC-14; first compound 2 µM) was 0.0854, the relative viability (SK-MES-1; first compound 0.02 µM) was 1.17 and the relative viability (SK-MES-1; first compound 0.2 µM) was 1.05. It also gave a relative viability (SK-MES-1; first compound 0.6325 µM) of 1.17 and a relative viability (SK-MES-1; first compound 2 µM) of 0.83.
